Columns and labels:
[1] = target: Voltage-gated inwardly rectifying potassium channel KCNH2 (Homo sapiens, UniProt Q12809); format: functional
[2] = target: Sodium-dependent dopamine transporter (Homo sapiens, UniProt Q01959)
D(3) dopamine receptor = D(3) dopamine receptor (Homo sapiens, UniProt P35462)
Histamine H3 receptor = Histamine H3 receptor (Homo sapiens, UniProt Q9Y5N1)
Thromboxane A2 receptor [3] = target: T1, Thromboxane A2 receptor (Homo sapiens, UniProt P21731); format: functional, cell-based
T1 sequence (P21731 whole entry): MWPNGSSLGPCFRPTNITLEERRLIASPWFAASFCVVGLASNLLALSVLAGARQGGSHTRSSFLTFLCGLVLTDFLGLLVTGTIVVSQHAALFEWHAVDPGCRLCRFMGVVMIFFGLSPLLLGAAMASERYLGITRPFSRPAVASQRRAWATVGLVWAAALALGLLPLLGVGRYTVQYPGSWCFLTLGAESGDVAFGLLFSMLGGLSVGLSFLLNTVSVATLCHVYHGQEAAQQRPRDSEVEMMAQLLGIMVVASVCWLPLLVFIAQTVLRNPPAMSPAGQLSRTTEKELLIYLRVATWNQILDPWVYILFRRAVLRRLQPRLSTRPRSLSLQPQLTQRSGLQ

Progesterone receptor = target: T2, Progesterone receptor (Homo sapiens, UniProt P06401)
T2 sequence (P06401 whole entry): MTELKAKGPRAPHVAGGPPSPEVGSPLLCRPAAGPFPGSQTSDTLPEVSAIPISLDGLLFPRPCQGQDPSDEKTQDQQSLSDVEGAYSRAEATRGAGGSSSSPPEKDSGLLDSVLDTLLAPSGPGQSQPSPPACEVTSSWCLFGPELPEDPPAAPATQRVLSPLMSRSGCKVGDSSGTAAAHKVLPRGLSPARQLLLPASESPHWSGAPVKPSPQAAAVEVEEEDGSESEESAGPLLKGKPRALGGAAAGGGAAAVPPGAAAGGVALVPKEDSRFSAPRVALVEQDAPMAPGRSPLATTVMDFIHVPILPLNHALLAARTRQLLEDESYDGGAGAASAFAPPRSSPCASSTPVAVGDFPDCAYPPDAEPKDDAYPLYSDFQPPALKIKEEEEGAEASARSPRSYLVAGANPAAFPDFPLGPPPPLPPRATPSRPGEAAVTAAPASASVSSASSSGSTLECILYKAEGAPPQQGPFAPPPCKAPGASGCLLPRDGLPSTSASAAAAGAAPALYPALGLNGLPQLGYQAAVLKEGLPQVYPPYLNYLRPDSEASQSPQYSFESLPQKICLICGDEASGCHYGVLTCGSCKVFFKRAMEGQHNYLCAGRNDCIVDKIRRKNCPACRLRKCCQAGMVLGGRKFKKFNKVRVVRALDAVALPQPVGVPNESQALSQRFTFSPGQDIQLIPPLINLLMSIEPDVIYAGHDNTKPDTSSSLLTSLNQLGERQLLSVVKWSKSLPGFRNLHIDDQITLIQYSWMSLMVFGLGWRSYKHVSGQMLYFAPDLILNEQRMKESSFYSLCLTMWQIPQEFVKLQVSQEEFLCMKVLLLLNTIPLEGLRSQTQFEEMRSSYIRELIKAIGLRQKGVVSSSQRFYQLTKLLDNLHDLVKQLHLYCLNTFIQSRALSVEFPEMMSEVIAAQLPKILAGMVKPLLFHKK

[4] = target: T3, 5-hydroxytryptamine receptor 1A (Homo sapiens, UniProt P08908)
T3 sequence (P08908 whole entry): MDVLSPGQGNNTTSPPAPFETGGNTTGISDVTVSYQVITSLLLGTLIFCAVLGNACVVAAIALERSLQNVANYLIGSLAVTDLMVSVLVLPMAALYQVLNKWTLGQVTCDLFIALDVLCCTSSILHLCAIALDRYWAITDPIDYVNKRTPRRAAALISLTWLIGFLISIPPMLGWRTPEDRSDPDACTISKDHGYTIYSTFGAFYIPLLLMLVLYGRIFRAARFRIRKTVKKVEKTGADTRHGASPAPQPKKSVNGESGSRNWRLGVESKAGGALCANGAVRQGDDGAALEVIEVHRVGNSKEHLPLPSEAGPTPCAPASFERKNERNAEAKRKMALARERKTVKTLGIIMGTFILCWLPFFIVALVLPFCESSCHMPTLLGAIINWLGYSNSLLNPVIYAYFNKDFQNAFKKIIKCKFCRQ

[5] = target: T4, Alpha-2A adrenergic receptor (Homo sapiens, UniProt P08913)
T4 sequence (P08913 whole entry): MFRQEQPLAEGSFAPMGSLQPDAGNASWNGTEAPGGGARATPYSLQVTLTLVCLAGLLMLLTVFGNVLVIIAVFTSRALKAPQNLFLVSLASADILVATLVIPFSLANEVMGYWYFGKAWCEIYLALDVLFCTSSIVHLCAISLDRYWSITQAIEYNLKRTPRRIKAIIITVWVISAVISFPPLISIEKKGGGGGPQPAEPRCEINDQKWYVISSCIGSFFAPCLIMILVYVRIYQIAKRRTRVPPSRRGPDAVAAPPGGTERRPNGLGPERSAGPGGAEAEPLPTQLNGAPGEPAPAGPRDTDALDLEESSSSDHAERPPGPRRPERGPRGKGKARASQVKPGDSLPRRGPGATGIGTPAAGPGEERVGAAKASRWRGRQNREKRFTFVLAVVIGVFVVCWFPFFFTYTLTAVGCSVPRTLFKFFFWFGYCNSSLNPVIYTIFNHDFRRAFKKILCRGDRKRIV

[6] = target: 5-hydroxytryptamine receptor 2B (Homo sapiens, UniProt P41595); format: functional, cell-based
Thromboxane A2 receptor [7] = target: T1, Thromboxane A2 receptor; format: functional, cell-based; remark: listed apart in the source
[8] = target: cGMP-inhibited 3',5'-cyclic phosphodiesterase 3A (Homo sapiens, UniProt Q14432); format: functional
[9] = target: Prostaglandin G/H synthase 1 (Homo sapiens, UniProt P23219); format: functional
Note: assay procedure not described here.

Chain of D(3) dopamine receptor (P35462 whole entry): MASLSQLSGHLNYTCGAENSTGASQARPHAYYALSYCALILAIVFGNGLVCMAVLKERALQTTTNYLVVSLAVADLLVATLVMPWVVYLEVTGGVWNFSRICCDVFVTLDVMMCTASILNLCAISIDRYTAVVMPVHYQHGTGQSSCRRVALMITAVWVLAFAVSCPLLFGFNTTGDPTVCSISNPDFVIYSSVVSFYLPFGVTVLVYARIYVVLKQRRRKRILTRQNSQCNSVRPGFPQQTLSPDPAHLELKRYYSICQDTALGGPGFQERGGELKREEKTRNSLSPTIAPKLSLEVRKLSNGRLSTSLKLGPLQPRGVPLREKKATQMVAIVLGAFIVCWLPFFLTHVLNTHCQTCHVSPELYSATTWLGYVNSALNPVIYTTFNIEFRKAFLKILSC
Chain of Sodium-dependent dopamine transporter (Q01959 whole entry): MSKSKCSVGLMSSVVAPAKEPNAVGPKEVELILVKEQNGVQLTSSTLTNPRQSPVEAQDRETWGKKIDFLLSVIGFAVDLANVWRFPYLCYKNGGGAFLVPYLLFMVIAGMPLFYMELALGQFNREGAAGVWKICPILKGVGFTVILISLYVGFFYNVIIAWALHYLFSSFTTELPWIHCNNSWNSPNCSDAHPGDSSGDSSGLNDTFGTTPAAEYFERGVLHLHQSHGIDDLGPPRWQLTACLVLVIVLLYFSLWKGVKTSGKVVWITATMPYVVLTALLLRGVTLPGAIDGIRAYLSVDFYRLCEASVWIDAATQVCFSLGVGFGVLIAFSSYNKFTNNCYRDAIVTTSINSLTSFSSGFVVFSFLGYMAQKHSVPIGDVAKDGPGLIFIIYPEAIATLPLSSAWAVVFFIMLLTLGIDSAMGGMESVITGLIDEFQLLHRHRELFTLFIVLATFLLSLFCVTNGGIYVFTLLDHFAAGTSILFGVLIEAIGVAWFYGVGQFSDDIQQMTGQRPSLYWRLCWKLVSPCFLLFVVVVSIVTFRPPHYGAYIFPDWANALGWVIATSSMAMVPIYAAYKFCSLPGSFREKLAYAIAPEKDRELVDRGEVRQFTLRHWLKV
Chain of Histamine H3 receptor (Q9Y5N1 whole entry): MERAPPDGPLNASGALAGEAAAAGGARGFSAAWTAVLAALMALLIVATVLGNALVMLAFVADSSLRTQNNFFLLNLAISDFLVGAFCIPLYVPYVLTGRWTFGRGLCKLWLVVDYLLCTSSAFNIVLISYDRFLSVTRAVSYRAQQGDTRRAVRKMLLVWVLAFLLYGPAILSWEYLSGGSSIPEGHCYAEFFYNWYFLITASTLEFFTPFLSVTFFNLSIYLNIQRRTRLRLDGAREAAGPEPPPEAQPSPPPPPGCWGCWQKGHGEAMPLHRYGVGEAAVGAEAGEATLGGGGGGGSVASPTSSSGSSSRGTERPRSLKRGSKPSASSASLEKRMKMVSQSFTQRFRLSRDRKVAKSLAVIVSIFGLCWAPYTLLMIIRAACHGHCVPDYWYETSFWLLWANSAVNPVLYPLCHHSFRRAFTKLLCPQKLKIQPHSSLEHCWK
Chain of cGMP-inhibited 3',5'-cyclic phosphodiesterase 3A (Q14432 whole entry): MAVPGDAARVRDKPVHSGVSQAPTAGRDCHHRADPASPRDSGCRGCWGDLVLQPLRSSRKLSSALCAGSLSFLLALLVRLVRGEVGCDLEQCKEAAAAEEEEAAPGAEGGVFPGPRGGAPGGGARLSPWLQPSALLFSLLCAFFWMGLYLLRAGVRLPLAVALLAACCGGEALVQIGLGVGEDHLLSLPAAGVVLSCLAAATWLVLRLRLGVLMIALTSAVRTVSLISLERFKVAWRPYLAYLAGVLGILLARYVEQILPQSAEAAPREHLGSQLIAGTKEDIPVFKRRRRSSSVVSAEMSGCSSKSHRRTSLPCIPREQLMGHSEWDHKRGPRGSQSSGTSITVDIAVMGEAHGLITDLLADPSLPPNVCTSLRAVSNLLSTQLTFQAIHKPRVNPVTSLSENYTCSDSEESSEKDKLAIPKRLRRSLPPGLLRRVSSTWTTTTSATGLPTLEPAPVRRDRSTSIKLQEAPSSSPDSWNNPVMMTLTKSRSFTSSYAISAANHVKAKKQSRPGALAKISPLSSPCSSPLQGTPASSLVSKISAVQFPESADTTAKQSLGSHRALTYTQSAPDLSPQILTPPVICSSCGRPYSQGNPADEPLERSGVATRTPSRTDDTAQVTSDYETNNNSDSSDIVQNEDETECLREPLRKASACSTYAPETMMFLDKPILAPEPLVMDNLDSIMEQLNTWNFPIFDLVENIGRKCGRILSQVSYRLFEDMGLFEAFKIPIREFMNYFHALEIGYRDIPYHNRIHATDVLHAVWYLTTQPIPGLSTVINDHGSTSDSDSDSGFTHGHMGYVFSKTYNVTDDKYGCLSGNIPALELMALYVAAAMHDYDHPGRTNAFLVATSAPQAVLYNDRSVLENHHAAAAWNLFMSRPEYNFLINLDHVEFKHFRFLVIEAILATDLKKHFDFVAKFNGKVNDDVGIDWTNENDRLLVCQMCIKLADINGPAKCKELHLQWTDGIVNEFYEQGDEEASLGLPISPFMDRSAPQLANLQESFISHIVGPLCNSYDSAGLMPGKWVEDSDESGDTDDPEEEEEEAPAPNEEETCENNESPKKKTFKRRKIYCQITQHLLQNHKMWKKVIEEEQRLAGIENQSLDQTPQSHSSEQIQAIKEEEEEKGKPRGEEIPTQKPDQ
Chain of 5-hydroxytryptamine receptor 2B (P41595 whole entry): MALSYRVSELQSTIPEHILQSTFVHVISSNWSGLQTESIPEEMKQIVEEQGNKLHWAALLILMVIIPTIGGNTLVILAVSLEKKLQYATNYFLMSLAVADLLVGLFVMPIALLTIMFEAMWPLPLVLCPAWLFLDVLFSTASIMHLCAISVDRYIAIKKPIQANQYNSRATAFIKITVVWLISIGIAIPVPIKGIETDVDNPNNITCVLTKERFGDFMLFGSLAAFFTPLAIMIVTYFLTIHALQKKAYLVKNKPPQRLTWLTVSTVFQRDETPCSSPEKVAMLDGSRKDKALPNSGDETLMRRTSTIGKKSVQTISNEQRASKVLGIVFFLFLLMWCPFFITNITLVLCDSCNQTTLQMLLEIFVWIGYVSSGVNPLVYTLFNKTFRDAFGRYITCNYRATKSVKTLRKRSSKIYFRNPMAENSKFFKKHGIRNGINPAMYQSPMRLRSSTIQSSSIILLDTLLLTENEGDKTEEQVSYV
Chain of Voltage-gated inwardly rectifying potassium channel KCNH2 (Q12809 whole entry): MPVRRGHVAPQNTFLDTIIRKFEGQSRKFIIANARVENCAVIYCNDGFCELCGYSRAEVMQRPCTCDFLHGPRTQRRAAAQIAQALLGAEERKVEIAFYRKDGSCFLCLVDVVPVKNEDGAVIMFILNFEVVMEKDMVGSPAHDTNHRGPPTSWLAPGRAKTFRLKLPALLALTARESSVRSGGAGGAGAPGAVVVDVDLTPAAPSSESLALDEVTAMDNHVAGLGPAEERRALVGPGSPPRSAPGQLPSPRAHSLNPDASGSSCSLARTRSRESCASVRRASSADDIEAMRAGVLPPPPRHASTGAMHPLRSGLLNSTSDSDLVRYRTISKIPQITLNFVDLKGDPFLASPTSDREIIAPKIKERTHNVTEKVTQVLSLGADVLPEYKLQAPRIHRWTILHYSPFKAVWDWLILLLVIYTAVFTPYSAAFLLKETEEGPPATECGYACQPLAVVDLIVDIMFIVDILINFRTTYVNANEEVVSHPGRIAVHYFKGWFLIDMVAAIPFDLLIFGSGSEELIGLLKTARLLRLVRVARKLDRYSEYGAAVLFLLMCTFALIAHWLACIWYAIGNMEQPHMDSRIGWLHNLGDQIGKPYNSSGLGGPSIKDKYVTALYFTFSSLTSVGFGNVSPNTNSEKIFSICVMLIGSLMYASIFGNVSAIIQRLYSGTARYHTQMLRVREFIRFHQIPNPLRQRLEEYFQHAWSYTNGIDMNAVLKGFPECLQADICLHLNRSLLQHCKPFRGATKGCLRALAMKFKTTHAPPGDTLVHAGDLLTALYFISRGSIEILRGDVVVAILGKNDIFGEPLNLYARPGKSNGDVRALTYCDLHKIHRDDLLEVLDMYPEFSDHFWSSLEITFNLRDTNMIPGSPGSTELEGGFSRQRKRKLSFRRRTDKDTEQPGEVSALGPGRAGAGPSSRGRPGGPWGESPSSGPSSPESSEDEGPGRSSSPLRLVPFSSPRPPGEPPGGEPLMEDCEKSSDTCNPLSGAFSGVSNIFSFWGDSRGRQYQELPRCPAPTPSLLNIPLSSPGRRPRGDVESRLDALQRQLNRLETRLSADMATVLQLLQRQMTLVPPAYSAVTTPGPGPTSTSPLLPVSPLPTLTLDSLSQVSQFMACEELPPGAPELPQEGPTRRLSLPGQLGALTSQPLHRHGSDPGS
Chain of Prostaglandin G/H synthase 1 (P23219 whole entry): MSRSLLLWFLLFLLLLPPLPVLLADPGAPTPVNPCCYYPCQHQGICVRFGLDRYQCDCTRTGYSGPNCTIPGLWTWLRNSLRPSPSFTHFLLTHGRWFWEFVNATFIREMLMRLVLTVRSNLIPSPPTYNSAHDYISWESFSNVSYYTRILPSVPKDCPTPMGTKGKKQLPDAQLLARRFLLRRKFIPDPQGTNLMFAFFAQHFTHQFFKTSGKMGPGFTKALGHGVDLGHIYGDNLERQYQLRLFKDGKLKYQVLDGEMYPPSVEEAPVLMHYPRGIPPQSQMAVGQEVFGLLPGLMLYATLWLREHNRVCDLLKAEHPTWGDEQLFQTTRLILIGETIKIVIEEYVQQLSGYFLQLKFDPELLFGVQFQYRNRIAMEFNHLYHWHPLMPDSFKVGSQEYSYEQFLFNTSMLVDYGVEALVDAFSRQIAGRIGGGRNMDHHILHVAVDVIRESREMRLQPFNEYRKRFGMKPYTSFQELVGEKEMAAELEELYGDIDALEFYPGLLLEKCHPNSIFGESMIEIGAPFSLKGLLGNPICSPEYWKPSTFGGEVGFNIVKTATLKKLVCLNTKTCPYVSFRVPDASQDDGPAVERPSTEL

## S=P(N1CC1)(N1CC1)N1CC1 [THIOTEPA]
[1]
  AC50: 9.6 µM

## CCC(=O)O[C@]1(C(=O)CCl)[C@@H](C)C[C@H]2[C@@H]3CCC4=CC(=O)C=C[C@]4(C)[C@@]3(F)[C@@H](O)C[C@@]21C [CLOBETASOL PROPIONATE]
[1]
  AC50: > 30 µM

## CC1(C)S[C@@H]2[C@H](NC(=O)C(C(=O)O)c3ccccc3)C(=O)N2[C@H]1C(=O)O (stereo not given in full) [CARBENICILLIN]
[1]
  AC50: > 30 µM

## CCCc1cc(=O)[nH]c(=S)[nH]1 [PROPYLTHIOURACIL]
[1]
  AC50: > 30 µM

## CNC[C@H](O)c1ccc(O)c(O)c1 [EPINEPHRINE]
[1]
  AC50: > 30 µM

## Cn1cc(C(=O)[C@@H]2CCc3nc[nH]c3C2)c2ccccc21 [RAMOSETRON]
[1]
  AC50: 4.7 µM

## CCOc1nc2cccc(C(=O)O)c2n1Cc1ccc(-c2ccccc2-c2nnn[nH]2)cc1
[1]
  AC50: > 30 µM

## Nc1c(CC(=O)O)cccc1C(=O)c1ccc(Br)cc1 [BROMFENAC]
[2]
  AC50: > 30 µM
D(3) dopamine receptor
  AC50: > 30 µM
Histamine H3 receptor
  AC50: > 30 µM
Thromboxane A2 receptor [3]
  AC50: > 30 µM
Progesterone receptor
  AC50: > 30 µM
[4]
  AC50: > 30 µM
[5]
  AC50: > 30 µM
[6]
  AC50: > 30 µM
[1]
  AC50: > 30 µM
Thromboxane A2 receptor [7]
  AC50: > 30 µM
[8]
  AC50: > 30 µM

## CCCNC(=O)NS(=O)(=O)c1ccc(Cl)cc1 [CHLORPROPAMIDE]
[1]
  AC50: > 30 µM

## N=C(N)N/N=C/c1c(Cl)cccc1Cl [GUANABENZ]
[2]
  AC50: 12.8 µM
D(3) dopamine receptor
  AC50: 10.5 µM
Histamine H3 receptor
  AC50: > 30 µM
Thromboxane A2 receptor [3]
  AC50: > 30 µM
Progesterone receptor
  AC50: > 30 µM
[4]
  AC50: 0.604 µM
[9]
  AC50: > 30 µM
[6]
  AC50: > 30 µM
[1]
  AC50: > 30 µM
Thromboxane A2 receptor [7]
  AC50: 22.2 µM
[8]
  AC50: > 30 µM

## COc1cc(C(=O)NS(=O)(=O)c2ccccc2C)ccc1Cc1cn(C)c2ccc(NC(=O)OC3CCCC3)cc12 [ZAFIRLUKAST]
[1]
  AC50: > 30 µM

## CN1Cc2c(N)cccc2C(c2ccccc2)C1 (stereo not given) [NOMIFENSINE]
[1]
  AC50: 4.8 µM

## CC=CC1=C(C(=O)O)N2C(=O)[C@@H](NC(=O)[C@H](N)c3ccc(O)cc3)[C@H]2SC1 [CEFPROZIL]
[1]
  AC50: > 30 µM

## CCC1=C[C@@H]2CN(C1)Cc1c([nH]c3ccccc13)[C@@](C(=O)OC)(c1cc3c(cc1OC)N(C)[C@H]1[C@@](O)(C(=O)OC)[C@H](OC(C)=O)[C@]4(CC)C=CCN5CC[C@]31[C@@H]54)C2 [VINORELBINE]
[2]
  AC50: > 30 µM
D(3) dopamine receptor
  AC50: > 30 µM
Histamine H3 receptor
  AC50: > 30 µM
Thromboxane A2 receptor [3]
  AC50: > 30 µM
Progesterone receptor
  AC50: > 30 µM
[4]
  AC50: > 30 µM
[5]
  AC50: > 30 µM
[6]
  AC50: > 30 µM
[1]
  AC50: 5.5 µM
Thromboxane A2 receptor [7]
  AC50: > 30 µM
[8]
  AC50: > 30 µM

## CC(CN1c2ccccc2Sc2ccccc21)N(C)C (stereo not given) [PROMETHAZINE]
[2]
  AC50: > 30 µM
D(3) dopamine receptor
  AC50: 0.46 µM
Histamine H3 receptor
  AC50: > 30 µM
Thromboxane A2 receptor [3]
  AC50: > 30 µM
Progesterone receptor
  AC50: > 30 µM
[4]
  AC50: 0.7 µM
[6]
  AC50: > 30 µM
[1]
  AC50: 0.922 µM
Thromboxane A2 receptor [7]
  AC50: > 3 µM
[8]
  AC50: > 30 µM

## CC(=O)Nc1ccc(CC(=O)O)cc1 [ACTARIT]
[1]
  AC50: > 30 µM
